Test system: ATF4 luciferase reporter in HEK293T cells
Test: ATF4-Luc assay (in vitro model of VWMD)
Type: cell-based, human
Conditions: Homo sapiens, HEK-293T, 7 h, HEK293T cells carrying the ATF4 luciferase reporter, 1 μg/mL tunicamycin, One Glo luminescence
How it was run: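 Tunicamycin (1 μg/mL) stress with co-added compound for 7 hours in HEK293T cells stably carrying an ATF4 5′-UTR–luciferase reporter. EC50 values come from the luminescent signal (One Glo).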

SMILES | EC50 [nM]
O=C(NC12CC(n3cc(OCCOC(F)(F)F)cn3)(C1)C2)[C@H]1C[C@H](O)c2cc(C(F)(F)F)c(F)cc2O1 [Compound 633, (2R,43)-7-fluoro-4-hydroxy-N-(3-{4-[2-(trifluoromethoxy)ethoxy]-1H-pyrazol-1-yl}bicyclo[1.1.1]pentan-1-yl)-6-(trifluoromethyl)-3,4-dihydro-2H-1-benzopyran-2-carboxamide] | < 10
O=C(NC12CC(n3cc(C(=O)N4CC(COC(F)(F)F)C4)cn3)(C1)C2)[C@H]1C[C@@H](O)c2cc(Cl)c(F)cc2O1 [Compound 363, (2R,4R)-6-chloro-7-fluoro-4-hydroxy-N-[3-(4-{3-[(trifluoromethoxy)methyl]azetidine-1-carbonyl}-1H-pyrazol-1-yl)bicyclo[1.1.1]pentan-1-yl]-3,4-dihydro-2H-1-benzopyran-2-carboxamide] | < 10
O=C(CO[C@H]1C[C@@H](OC(F)(F)F)C1)NC12CC(NC(=O)[C@H]3C[C@H](O)c4cc(Cl)c(Cl)cc4O3)(C1)C2 [Compound 495, (2R,4S)-6,7-dichloro-4-hydroxy-N-[3-(2-{[(1s,3S)-3-(trifluoromethoxy)cyclobutyl]oxy}acetamido)bicyclo[1.1.1]pentan-1-yl]-3,4-dihydro-2H-1-benzopyran-2-carboxamide] | < 10
O=C1C[C@H](C(=O)N[C@H]2C[C@H]3CC[C@@H](C2)N3CCCOc2ccc(Cl)cc2)Oc2ccc(Cl)cc21 [Compound 101, (2R)-6-chloro-N-{(1R,3r,5S)-8-[3-(4-chlorophenoxy)propyl]-8-azabicyclo[3.2.1]octan-3-yl}-4-oxo-3,4-dihydro-2H-1-benzopyran-2-carboxamide] | > 2000
O=C(NC12CC(n3cc(C(=O)N4CCC(F)(F)C4)cn3)(C1)C2)[C@H]1C[C@@H](O)c2cc(Cl)ccc2O1 [Compound 384, (2R,4R)-6-chloro-N-{3-[4-(3,3-difluoropyrrolidine-1-carbonyl)-1H-pyrazol-1-yl]bicyclo[1.1.1]pentan-1-yl}-4-hydroxy-3,4-dihydro-2H-1-benzopyran-2-carboxamide] | 250 to 500
O=C(N[C@H]1CC[C@H](n2cc(OCC(F)(F)F)cn2)CC1)[C@H]1C[C@@H](O)c2cc(Cl)ccc2O1 [Compound 524, (2R,4R)-6-chloro-4-hydroxy-N-{(1r,4R)-4-[4-(2,2,2-trifluoroethoxy)-1H-pyrazol-1-yl]cyclohexyl}-3,4-dihydro-2H-1-benzopyran-2-carboxamide] | 10 to 50
O=C(COc1ccc(Cl)c(Cl)c1)NC12CC(n3cc(C(=O)N4CC[C@H](OC(F)(F)F)C4)cn3)(C1)C2 [Compound 606, 2-(3,4-dichlorophenoxy)-N-(3-{4-[(3S)-3-(trifluoromethoxy)pyrrolidine-1-carbonyl]-1H-pyrazol-1-yl}bicyclo[1.1.1]pentan-1-yl)acetamide] | < 10
O=C(CO[C@H]1C[C@@H](OC(F)(F)F)C1)NC12CC(NC(=O)[C@@H]3C[C@@H](O)c4cc(Cl)c(F)cc4O3)(C1)C2 [Compound 491, (2S,4R)-6-chloro-7-fluoro-4-hydroxy-N-[3-(2-{[(1s,3R)-3-(trifluoromethoxy)cyclobutyl]oxy}acetamido)bicyclo[1.1.1]pentan-1-yl]-3,4-dihydro-2H-1-benzopyran-2-carboxamide] | < 10
O=C(CO[C@H]1C[C@@H](OC(F)(F)F)C1)NC12CCC(NC(=O)[C@H]3C[C@@H](O)c4cc(C(F)(F)F)ccc4O3)(CC1)[C@@H](O)C2 [Compound 489, (2R,4R)-4-hydroxy-N-[(2S)-2-hydroxy-4-(2-{[(1s,3R)-3-(trifluoromethoxy)cyclobutyl]oxy}acetamido)bicyclo[2.2.2]octan-1-yl]-6-(trifluoromethyl)-3,4-dihydro-2H-1-benzopyran-2-carboxamide] | < 10
O=C(CO[C@H]1C[C@@H](OC(F)(F)F)C1)NC12CCC(NC(=O)[C@H]3C[C@@H](O)c4cc(Cl)c(F)cc4O3)(CC1)[C@@H](O)C2 [Compound 490, (2R,4R)-6-chloro-7-fluoro-4-hydroxy-N-[(2S)-2-hydroxy-4-(2-{[(1s,3R)-3-(trifluoromethoxy)cyclobutyl]oxy}acetamido)bicyclo[2.2.2]octan-1-yl]-3,4-dihydro-2H-1-benzopyran-2-carboxamide] | < 10
O=C(NCc1ccc(C(F)(F)F)cn1)[C@H]1C[C@H]2O[C@@H]1CC2NC(=O)[C@H]1C[C@@H](O)c2cc(Cl)ccc2O1 (mixture of isomers) [Compound 313, (2R,4R)-6-chloro-4-hydroxy-N-[(1RS,2SR,4RS,5SR)-5-({[5-(trifluoromethyl)pyridin-2-yl]methyl}carbamoyl)-7-oxabicyclo[2.2.1]heptan-2-yl]-3,4-dihydro-2H-1-benzopyran-2-carboxamide] | 250 to 500
O=C(NC12CC(n3cc(N4CC[C@@H](COC(F)(F)F)C4)cn3)(C1)C2)[C@H]1C[C@@H](O)c2cc(Cl)ccc2O1 [Compound 336, (2R,4R)-6-chloro-4-hydroxy-N-[3-(4-{(3R)-3-[(trifluoromethoxy)methyl]pyrrolidin-1-yl}-1H-pyrazol-1-yl)bicyclo[1.1.1]pentan-1-yl]-3,4-dihydro-2H-1-benzopyran-2-carboxamide] | 50 to 250
O=C(NC12CC(n3cc(C(=O)N4CC(CC(F)F)C4)cn3)(C1)C2)[C@H]1C[C@@H](O)c2cc(Cl)ccc2O1 [Compound 377, (2R,4R)-6-chloro-N-(3-{4-[3-(2,2-difluoroethyl)azetidine-1-carbonyl]-1H-pyrazol-1-yl}bicyclo[1.1.1]pentan-1-yl)-4-hydroxy-3,4-dihydro-2H-1-benzopyran-2-carboxamide] | 250 to 500
O=C(NC12CC(n3cc(C(=O)N4CC[C@@H](COC(F)(F)F)C4)cn3)(C1)C2)[C@H]1C[C@@H](O)c2cc(Cl)ccc2O1 [Compound 397, (2R,4R)-6-chloro-4-hydroxy-N-[3-(4-{(3R)-3-[(trifluoromethoxy)methyl]pyrrolidine-1-carbonyl}-1H-pyrazol-1-yl)bicyclo[1.1.1]pentan-1-yl]-3,4-dihydro-2H-1-benzopyran-2-carboxamide] | 50 to 250
COc1ccc2nn(C34CCC(NC(=O)[C@H]5C[C@@H](O)c6cc(Cl)ccc6O5)(C3)C4)cc2c1 [Compound 652, (2R,4R)-6-chloro-4-hydroxy-N-[4-(5-methoxy-2H-indazol-2-yl)bicyclo[2.1.1]hexan-1-yl]-3,4-dihydro-2H-1-benzopyran-2-carboxamide] | 10 to 50
O=C(NC12CC(c3ccnc(OCCOC(F)(F)F)n3)(C1)C2)[C@H]1C[C@@H](O)c2cc(Cl)ccc2O1 [Compound 525, (2R,4R)-6-chloro-4-hydroxy-N-(3-{2-[2-(trifluoromethoxy)ethoxy]pyrimidin-4-yl}bicyclo[1.1.1]pentan-1-yl)-3,4-dihydro-2H-1-benzopyran-2-carboxamide] | 10 to 50
O=C(NC12CC(n3cc(-c4ccn(CC(F)(F)F)c4)cn3)(C1)C2)[C@H]1C[C@@H](O)c2cc(Cl)ccc2O1 [Compound 547, (2R,4R)-6-chloro-4-hydroxy-N-(3-{4-[1-(2,2,2-trifluoroethyl)-1H-pyrrol-3-yl]-1H-pyrazol-1-yl}bicyclo[1.1.1]pentan-1-yl)-3,4-dihydro-2H-1-benzopyran-2-carboxamide] | < 10
O=C(NC12CC(c3cnc(OCCOC(F)(F)F)o3)(C1)C2)[C@H]1C[C@@H](O)c2cc(Cl)ccc2O1 [Compound 414, (2R,4R)-6-chloro-4-hydroxy-N-(3-{2-[2-(trifluoromethoxy)ethoxy]-1,3-oxazol-5-yl}bicyclo[1.1.1]pentan-1-yl)-3,4-dihydro-2H-1-benzopyran-2-carboxamide] | < 10
O=C(NC12CC(c3cnc(OCCCOC(F)(F)F)o3)(C1)C2)[C@H]1C[C@@H](O)c2cc(Cl)ccc2O1 [Compound 415, (2R,4R)-6-chloro-4-hydroxy-N-(3-{2-[3-(trifluoromethoxy)propoxy]-1,3-oxazol-5-yl}bicyclo[1.1.1]pentan-1-yl)-3,4-dihydro-2H-1-benzopyran-2-carboxamide] | < 10
O=C(NC12CC(n3cc4cc(OC(F)F)ccc4n3)(C1)C2)[C@H]1C[C@@H](O)c2cc(Cl)ccc2O1 [Compound 502, (2R,4R)-6-chloro-N-{3-[5-(difluoromethoxy)-2H-indazol-2-yl]bicyclo[1.1.1]pentan-1-yl}-4-hydroxy-3,4-dihydro-2H-1-benzopyran-2-carboxamide] | 50 to 250
O=C(COc1ccc(Cl)c(F)c1)NC12CCC(n3cc(C(=O)N4CC[C@H](OC(F)(F)F)C4)cn3)(CC1)CC2 [Compound 624, 2-(4-chloro-3-fluorophenoxy)-N-(4-{4-[(3S)-3-(trifluoromethoxy)pyrrolidine-1-carbonyl]-1H-pyrazol-1-yl}bicyclo[2.2.2]octan-1-yl)acetamide] | < 10
CC(=O)N1CC=C(c2cnn(C34CC(NC(=O)[C@H]5C[C@@H](O)c6cc(Cl)ccc6O5)(C3)C4)c2)CC1 [Compound 340, (2R,4R)—N-{3-[4-(1-acetyl-1,2,3,6-tetrahydropyridin-4-yl)-1H-pyrazol-1-yl]bicyclo[1.1.1]pentan-1-yl}-6-chloro-4-hydroxy-3,4-dihydro-2H-1-benzopyran-2-carboxamide] | 50 to 250
COc1cc2cn(C34CC(NC(=O)COc5ccc(Cl)c(Cl)c5)(C3)C4)nc2cn1 [Compound 622, 2-(3,4-dichlorophenoxy)-N-[3-(5-methoxy-2H-pyrazolo[3,4-c]pyridin-2-yl)bicyclo[1.1.1]pentan-1-yl]acetamide] | 10 to 50
COc1ccc2nn([C@H]3CC[C@H](NC(=O)COc4ccc(Cl)c(Cl)c4)CC3)cc2n1 [Compound 596, 2-(3,4-dichlorophenoxy)-N-[(1r,4r)-4-(5-methoxy-2H-pyrazolo[4,3-b]pyridin-2-yl)cyclohexyl]acetamide] | < 10
O=C(NC12CC(n3cc(-c4ccc(C(F)(F)F)cn4)cn3)(C1)C2)[C@H]1C[C@@H](O)c2cc(C(F)(F)F)c(F)cc2O1 [Compound 484, (2R,4R)-7-fluoro-4-hydroxy-6-(trifluoromethyl)-N-(3-{4-[5-(trifluoromethyl)pyridin-2-yl]-1H-pyrazol-1-yl}bicyclo[1.1.1]pentan-1-yl)-3,4-dihydro-2H-1-benzopyran-2-carboxamide] | < 10

From US20250145594A1, “MODULATORS OF THE INTEGRATED STRESS PATHWAY” (Calico Life Sciences LLC, priority 2020, published 2025)
